One compound from patent US10258980B2, “Pure chelation process” (C LAB PHARMA INTERNATIONAL, S.A., priority 2014, dated 2019) can be followed below.

For data set [1] the following is noted: equal amounts of chelated copper mixed with water.
The conditions of data set [2]: dry powder rubbed on the surface of skin.

Consider `O=C(O)c1cccnc1.[Cu]` [copper nicotinic acid], for which, under “dry powder”, the “copper content by EDS, dry powder form” value came out at 22.90%. Besides, under “wet sample”, the “copper content by EDS after sample is wetted” value is given as 21.7%. The “change of EDS spectra after wetting” value (wet versus dry sample) is given as “did not change significantly”. Also, in data set [1], the “time to change to the oxidized blue color” value is “a few minutes”. Besides, the “disappearance from the surface of skin when rubbed, dry powder” value in data set [2] is on record as “disappeared from the surface of the skin”.
